These results are taken from EPA's ToxValDB 9.5.

A word on the LOAEL: it is the lowest dose or exposure tested at which an adverse effect was seen. Broadly, the NOAEL is the highest tested level that showed no adverse finding. Usually LD50 stands for the dose expected to kill half of the subjects tested.

Data set [1] relates to Rattus norvegicus. The note with it: oral.
The test system of data set [2] is Rattus norvegicus.
In data set [3] the test system is Rattus norvegicus. The note with it: for LEL: uterotrophic, Active; for LOEL / NOEL: Hershberger.
For another data set, the system named is Mus musculus. To be noted: subchronic, duration: 13 weeks, B6C3F1.
Data set [4] relates to Rattus norvegicus. To be noted: M/F; for LEL / NOEL: duration: 2 years, diet.
The next data set relates to Oryctolagus sp. The note with it: acute; dermal; occlusive; New Zealand.
The mark [5] stands for this setting: duration: 5 days, oral, gavage, Sprague-Dawley, active + Antiandrogenic + decrease in AST wts.
Where [6] appears, read: duration: 10 days, oral, gavage, Fischer 344, active + Antiandrogenic + anti-androgenic + decrease in AST wts.
Setting [7] is: duration: 10 days, oral, gavage, Sprague-Dawley, Antiandrogenic + anti-androgenic + decrease in AST wts.
Setting [8] is: duration: 10 days, oral, gavage, Wistar, active + Antiandrogenic + anti-androgenic + decrease in AST wts.
Where [9] appears, read: subchronic, oral, gavage, epithelial hyperplasia of the forestomach.
The mark [10] stands for this setting: chronic, oral, reduced body weight gain and food consumption.
Where [11] appears, read: short-term, duration: 28 days, gavage, M, Sprague-Dawley, Body Weight Changes: decrease + Food Consumption: decrease + Relative Organ Weight: Thyroid increase.
The mark [12] stands for this setting: chronic, oral, reduced body weight (males), liver cell vacuolation, cholinesterase inhibition.
Setting [13] is: duration: 10 days, oral, gavage, Sprague-Dawley, active + Negative + Antiandrogenic + anti-androgenic + negative.

Where “and” joins values, the source holds several entries; their conditions need not be identical. Identical values can stand only once.

In turn, `ClCCOCCCl` [Bis(chloroethyl) ether] registered an NOEL in the data set with Rattus norvegicus [1] (subchronic, gavage, Sprague-Dawley) of 15 mg/kg-day. This compound also displayed an LOAEL in the data set with Rattus norvegicus [2] (chronic, duration: 130 days, inhalation, M/F, body weight) of 404 mg/m3.

In turn, `CCC[CH2][Sn]([Cl])([Cl])[CH2]CCC` [Dibutyltin dichloride] displayed an LOAEL in the data set on Rattus norvegicus [2] (short-term, duration: 6 weeks, oral, diet, M/F, Wistar, immunological) of 5 mg/kg-day.

For the compound `C#C[C@]1(OC(=O)CC)C[C@@H]2CC[C@@H]3[C@H](CC[C@@]4(C)[C@H]3CC[C@]4(C#C)OC(=O)CC)[C@H]2C1` [Dinordrin II], in the data set with Rattus norvegicus [3] (duration: 3 days, oral), the LEL amounted to 0.01 mg/day.

As to `C#C[C@@]1(OC(=O)CC)C[C@@H]2CC[C@@H]3[C@H](CC[C@@]4(C)[C@H]3CC[C@]4(C#C)OC(=O)CC)[C@H]2C1` [Dinordrin I], the LEL with Rattus norvegicus [3] (duration: 3 days, oral) is 0.000156 mg/day.

Turning to `CC(C)([CH2][Sn]([CH2]C(C)(C)c1ccccc1)([CH2]C(C)(C)c1ccccc1)[O][Sn]([CH2]C(C)(C)c1ccccc1)([CH2]C(C)(C)c1ccccc1)[CH2]C(C)(C)c1ccccc1)c1ccccc1` [Fenbutatin oxide], the LOEL in the data set on Rattus norvegicus [3] (duration: 10 days, oral, gavage, wistar, active + Negative + Antiandrogenic + anti-androgenic + decrease in age of partial PPS at 10 / decrease in PPS wt and age at 75 with …) came out at 10 mg/kg-day.

With `COP(=S)(OC)Oc1ccc([N+](=O)[O-])c(C)c1` [Fenitrothion], in the data set on Rattus norvegicus [3] (duration: 7 days, oral, gavage, Sprague-Dawley, active + Negative + Antiandrogenic + anti-androgenic), the LOEL is 15 mg/kg-day.

As to `CC(C)C(=O)Nc1ccc([N+](=O)[O-])c(C(F)(F)F)c1` [Flutamide], the LOEL with Rattus norvegicus [3] (setting [5]) is 2.5 mg/kg-day; with Rattus norvegicus [3] (setting [6]) it was 2.5 mg/kg-day and 3.2 mg/kg-day; in the data set with Rattus norvegicus [3] (setting [7]), 1 mg/kg-day; with Rattus norvegicus [3] (setting [8]), 2.5 mg/kg-day and 3 mg/kg-day and 3.2 mg/kg-day. Further, the NOEL in the data set on Rattus norvegicus [3] (setting [5]) stood at 0.6 mg/kg-day; in the data set with Rattus norvegicus [3] (duration: 7 days, oral, gavage, Sprague-Dawley, active + Antiandrogenic + anti-androgenic + decrease in AST wts), 0.6 mg/kg-day; with Rattus norvegicus [3] (setting [6]), 0.6 mg/kg-day; in the data set with Rattus norvegicus [3] (setting [7]), 0.6 mg/kg-day; in the data set on Rattus norvegicus [3] (duration: 10 days, oral, gavage, Sprague-Dawley, Neither + decrease in AST) it was 0.6 mg/kg-day; in the data set with Rattus norvegicus [3] (duration: 10 days, oral, gavage, Sprague-Dawley, active + Antiandrogenic + anti-androgenic + decrease in AST wts), 0.6 mg/kg-day. The NOEL with Rattus norvegicus [3] (duration: 10 days, oral, gavage, Sprague-Dawley, active + Antiandrogenic + decrease in AST wts) was 0.6 mg/kg-day; with Rattus norvegicus [3] (setting [8]), 0.6 mg/kg-day.

In the data set with Rattus norvegicus [2] (short-term, duration: 10 days, oral, gavage, M, Sprague-Dawley, endocrine), `Brc1ccccc1-c1c(Br)c(Br)c(Br)c(Br)c1Br` [Hexabromobiphenyl] returned a no observed adverse effect level (NOAEL) of 1 mg/kg-day.

`ClC(Cl)=C(Cl)C(Cl)=C(Cl)Cl` [Hexachloro-1,3-butadiene] registered an NOAEL in the data set on Mus musculus (oral, diet, F, renal) of 0.2 mg/kg-day. Moreover, the LOAEL in the data set with Rattus norvegicus [2] (short-term, duration: 14 days, oral, diet, M/F, Wistar, renal) worked out at 5.9 mg/kg-day.

In the data set with Rattus norvegicus [1] (subchronic, duration: 35 days, gavage, Sprague-Dawley), `CC(C)Oc1ccc2c(=O)c(-c3ccccc3)coc2c1` [Ipriflavone] had an NOEL of more than 3000 mg/kg-day. Also, the LEL in the data set on Rattus norvegicus [3] (duration: 3 days, oral) amounted to 200 mg/day.

Regarding `CBr` [Methyl bromide], the lowest observed adverse effect level (LOAEL) in the data set on Rattus norvegicus [4] (chronic, duration: 29 months, inhalation, degenerative and proliferative lesions of the olfactory epithelium of the nasal cavity) was 11.7 mg/m3; in the data set with Rattus norvegicus [4] (setting [9]), 7.1 mg/kg-day; in the data set with Mus musculus (inhalation, M/F, neurological), 38.8 mg/m3; with Rattus norvegicus [2] (chronic, duration: 129 weeks, inhalation, M/F, Wistar, respiratory) it was 12 mg/m3. Also, the no-observed-adverse-effect level (NOAEL) in the data set with Rattus norvegicus [4] (setting [9]) turned out to be 1.4 mg/kg-day.

For the compound `CCCCCCCCCC(=O)O[C@H]1CC[C@H]2[C@@H]3CCC4=CC(=O)CC[C@@H]4[C@H]3CC[C@]12C` [Nandrolone decanoate], the LOEL with Rattus norvegicus [3] (duration: 10 days, injection, intramuscular, Wistar, active + Androgenic + androgenic) was found to be 1.5 mg/kg-day.

In the data set on Oryctolagus sp., `CCCCCCCC=O` [Octanal] yielded a median lethal dose (LD50) of 5210 mg/kg.

In the data set on Rattus norvegicus [4] (setting [10]), `CNC(=O)ON=C(SC)C(=O)N(C)C` [Oxamyl] had an LEL of 5 mg/kg-day and an NOEL of 2.5 mg/kg-day. Also, in the data set on Rattus norvegicus [3] (duration: 10 days, oral, gavage, Sprague-Dawley, inactive + Negative + Negative + neither + negative), the NOEL amounted to 0.5 mg/kg-day.

In the case of `O=C1OC(c2ccc(O)cc2)(c2ccc(O)cc2)c2ccccc21` [Phenolphthalein], the no-observed-adverse-effect level (NOAEL) in the data set with Rattus norvegicus [1] (setting [11]) is less than 200 mg/kg-day. In addition, the NOEL with Rattus norvegicus [1] (setting [11]) was less than 200 mg/kg-day; in the data set on Rattus norvegicus [1] (subchronic, duration: 13 weeks, diet, F, Fischer 344, Body Weight Changes: decrease + Absolute Organ Weight: Liver + Relative Organ Weight: Right kidney increase, Liver increase), 800 mg/kg-day; with Rattus norvegicus [1] (subchronic, duration: 13 weeks, diet, M/F, Fischer 344, Body Weight Changes: decrease + Absolute Organ Weight: Liver + Relative Organ Weight: Right kidney increase, Liver increase), 576 mg/kg-day. Moreover, the LEL in the data set with Rattus norvegicus [3] (duration: 2 days, injection, subcutaneous) was 1 mg/day.

As to `COP(=S)(OC)SCN1C(=O)c2ccccc2C1=O` [Phosmet], in the data set on Rattus norvegicus [4] (setting [12]), the LEL amounted to 20 mg/kg-day and the NOEL was determined as 2 mg/kg-day. Also, in the data set with Rattus norvegicus [3] (setting [13]), the LOEL was 25 mg/kg-day; the NOEL is 20 mg/kg-day and 15 mg/kg-day.

Take `C[C@H]1CCC[C@H](O)CCCCCc2cc(O)cc(O)c2C(=O)O1` [Zearalanol]: the LEL with Rattus norvegicus [3] (duration: 3 days, oral) came to 0.03 mg/day.

For `ClC1C(Cl)C(Cl)C(Cl)C(Cl)C1Cl` (stereo not drawn) [alpha-1,2,3,4,5,6-Hexachlorocyclohexane], the no observed adverse effect level (NOAEL) in the data set on Rattus norvegicus [2] (chronic, duration: 107 weeks, oral, diet, M/F, Wistar, hepatic) came out at 0.9 mg/kg-day; in the data set on Rattus norvegicus [2] (short-term, duration: 28 days, oral, gavage, M, Fischer 344, hepatic) it was 2 mg/kg-day.
